Results: patent US8815863B2, “Compounds and therapeutic use thereof for protein kinase inhibition” (priority 2009, dated 2014)
Read-outs that look alike come from different tables or passages of the source.

Columns and labels:
Human colon cancer HT-99 = Human colon cancer HT-99 transplanted nude mice; type: in vivo; details: GCT 20 mg/kg ip, compound 1 15 mg/kg iv
Method: Some of the above compounds are tested in vitro or in vivo for their anti-cancer or anti-tumor activities, as well as cellular toxicity tests using SRB and MTT methods. The in vitro anti-cancer effects on human cancer HT-29 and mouse lung cancer cell 3LL are summarized in Table 1, and the effects on treating transplanted human colon cancer […] on nude mice are summarized in Table 2.

human ovarian cancer = assay: Human ovarian cancer transplanted nude mice, combination with Gemcitabine; type: in vivo, nude mice BALB/c-nu
Method: The compound used for this test is XC608, shown above, and XC608-Cl is the chloride salt of XC608, 090208-1, also a whitish powder. AZD7762 is a yellow powder.
All of the above are dissolved in 5% glucose injectible solution and diluted to suitable concentrations. Control: Gemcitabine is obtained from Jiangsu Haosen Pharmaceuticals Co., Ltd., also dissolved to suitable concentration in saline solution.
Test animals: 30 nude mice BALB/c-nu, female, bw 18-20 g, supplied by B&K Universal Group Limited, Shanghai, China. Cancer cell lines: the human ovarian cell line is from a commercial source, transplanted onto nude mice, which were maintained by Shanghai Pharmaceutical Industry Research Institute.
The tumors from the ovarian cancer carrying nude mice is isolated and cut into 1-mm^3 pieces, which are then implanted subcutaneously to the test nude mice. After 10 days, the tumors grow to a size of about 0.1 cm^3. The test mice are randomly divided into 5 groups of six animals.
(§1) Starting from 11 days after tumor implant, the animals are administered the test compounds i.v. The animals are weighed every two days, and the tumor volume is measured. After 24 days from the beginning of test compound administration, the animals are killed and the tumors are isolated and weighed.
The tumor volume (TV) is measured and calculated.
Relative Tumor volume (RTV) is Vt/V0, wherein Vt is the tumor volume at the measurement time, while V0 is the tumor volume when drug administration was started.
A compound's antitumor activity is measured by the RTV growth rate, T/C (%), which is calculated as: T/C=Treatment RTC/Control Group RTC×100%.
If TC(%) is more than 60, then the treatment is considered to have no effect. Only when the TC is less than 60, an the difference is statistically significant would the treatment be considered to be effective.
Another measurement is rate of tumor inhibition, which is IR (%)=(control group tumor weight−treatment group tumor weight)/control group tumor weight×100%.

[1] = Body weight of ovarian cancer transplanted nude mice; type: in vivo, nude mice BALB/c-nu; details: i.v.
Method: as §1

HT-29 Cell line = assay: SRB cell multiplication test, sensitizing to cytotoxic antitumor drugs
Method: 3.2 Cell Lines: HT-29 Cell line (from ATCC).
Test Protocol: The effects of the compounds on cancer cell multiplication was measured using Sulforhodamine B (SRB). Specifically, log phase cells are inoculated into the holes of 96-hole culture plates, allowed to grow using the wall-adhesion procedure at 37° C. under 5% CO2. The test compound at 9 different concentrations were added, each concentration in duplicate, with appropriate saline water and cell-less controls. The cells are cultured for a further 72 hours, and fixed with TCA, and SRB is added for staining, and washed, and air-dried. After adding the Tris solution, the OD value was measured at 510 nm using a Spectra Max 190. The rate of inhibition is calculated according to the formula below: Rate of Inhibition=(ODcontrol−ODdrug)/ODcontrol×100%.
The IC50 is calculated based on the above ratios.

With Nc1ccn([C@@H]2O[C@H](CO)[C@@H](O)C2(F)F)c(=O)n1 [Gemcitabine, gemcitabine] the “TC (%)” value (Human colon cancer HT-99) was 45%, the “TV Dn” value (human ovarian cancer; Dn, end of test, i.v.) was 1734.05 ± 586.49 mm^3 and the RTV dn (human ovarian cancer; Vt/V0 at dn) was 12.07. For the same compound, the “TV d0” value (human ovarian cancer; d0, start of administration) was 143.67 ± 44.38 mm^3, the “Tumor Weight dn” value (human ovarian cancer; isolated tumors at dn) was 2.85 g and the “Tumor RI % dn” value (human ovarian cancer; rate of tumor inhibition by tumor weight versus control) was 19.72%. The “T/C % Dn” value (human ovarian cancer; treatment RTV/control RTV, *p < 0.05, **p < 0.01) was 82.27%, the “Body Weight (no tumor) Dn” value ([1]; Dn, end of test) was 22.65 g and the “Body Weight (with tumor) d0” value ([1]; d0, start of administration) was 21.38 g. For the same compound, the “Body Weight (with tumor) dn” value ([1]; dn, end of test) was 25.50 g, the IC50 (HT-29 Cell line; Homo sapiens, HT-29, 72 h, read-out: IC50 Drug alone) was 70 nM and the IC50 (HT-29 Cell line; read-out: IC50 +10 nM AZD7762, HT-29, SRB, 72 hours, drug +10 nM AZD7762) was 30 nM. The IC50 (HT-29 Cell line; read-out: IC50 +100 nM AZD7762, HT-29, SRB, 72 hours, drug +100 nM AZD7762) was 5 nM and the IC50 (HT-29 Cell line; read-out: IC50 +1 μM XC608, HT-29, SRB, 72 hours, drug +1 μM XC608) was 3 nM.
